# Data as given in ChEMBL document CHEMBL4732045, “Amide Bond Bioisosteres: Strategies, Synthesis, and Successes” (J Med Chem, 2020).
# Peptide text beside a SMILES is read from it. * marks the point of attachment. Hica(2S) = CC(C)C[C@H](O)C(=O)O; Boc = CC(C)(C)OC(=O)*
# How the values were obtained:
# [1] = Half-life in Sprague-Dawley rat plasma at 50 uM measured by LC-MS/MS analysis; assay type: ADME, cell-free
# [2] = Half-life in human plasma at 50 uM measured by LC-MS/MS analysis; assay type: ADME, cell-free
# [3] = target: Protein-S-isoprenylcysteine O-methyltransferase (Homo sapiens, UniProt O60725); test: Inhibition of human isoprenylcysteine carboxyl methyltransferase expressed in Saccharomyces cerevisiae membranes using AFC as substrate in presence of 14C-SAM incubated for 30 min by scintillation counting method; assay type: cell membranes, Cell membrane
# Protein-S-isoprenylcysteine O-methyltransferase, sequence (O60725 whole entry): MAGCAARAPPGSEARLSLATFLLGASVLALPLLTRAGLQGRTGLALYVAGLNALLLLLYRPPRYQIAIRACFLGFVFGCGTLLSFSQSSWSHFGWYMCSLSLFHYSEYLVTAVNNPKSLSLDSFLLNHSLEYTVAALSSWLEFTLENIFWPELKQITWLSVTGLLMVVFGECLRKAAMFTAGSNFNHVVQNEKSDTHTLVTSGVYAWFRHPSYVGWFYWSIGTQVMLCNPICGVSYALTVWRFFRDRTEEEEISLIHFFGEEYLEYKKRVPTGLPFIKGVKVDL
# [4] = Inhibition of [125]BH-CCK8 binding to guinea pig cortex CCKBR by radioligand binding assay; assay type: tissue-based, Cavia porcellus
# [5] = target: Gastrin/cholecystokinin type B receptor (Homo sapiens) (UniProt P32239); test: Agonist activity at CCKBR in human NCI-H345 cells assessed as calcium release relative to control; assay type: functional, cell-based; details: filed as agonist
# Gastrin/cholecystokinin type B receptor (Homo sapiens), sequence (P32239 whole entry): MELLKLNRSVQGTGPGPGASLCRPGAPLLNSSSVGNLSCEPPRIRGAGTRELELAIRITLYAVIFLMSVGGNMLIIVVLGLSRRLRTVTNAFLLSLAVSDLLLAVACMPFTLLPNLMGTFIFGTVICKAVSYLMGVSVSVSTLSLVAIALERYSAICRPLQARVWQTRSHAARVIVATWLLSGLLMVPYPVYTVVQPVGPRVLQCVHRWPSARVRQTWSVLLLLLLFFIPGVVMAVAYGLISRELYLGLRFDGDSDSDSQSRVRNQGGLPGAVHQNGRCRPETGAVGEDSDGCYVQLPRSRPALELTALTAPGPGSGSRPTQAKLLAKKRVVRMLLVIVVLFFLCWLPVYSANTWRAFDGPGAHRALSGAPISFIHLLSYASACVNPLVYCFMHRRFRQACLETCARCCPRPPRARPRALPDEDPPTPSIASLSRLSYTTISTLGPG
# MDA-MB-231 [6] = test: Antitumor activity against human MDA-MB-231 cells xenografted in nude mouse assessed as reduction in tumor volume at 70 mg/kg, ip administered for 15 days (reference value: 550 +/- 98.6 mm3); assay type: functional; details: time 15 day
# MCF-10A = test: Antiproliferative activity against human MCF-10A cells incubated for 24 hrs by MTT assay; assay type: functional, cell-based
# MDA-MB-231 [7] = test: cells; details: Homo sapiens, MDA-MB-231, 24 h
# [8] = Inhibition of ACAT in cholesterol-fed New Zealand rabbit intestional microsomes using [1-14C]oleoyl-CoA as substrate preincubated for 5 mins followed by substrate addition and measured after 5 mins by liquid scintillation counting method; parameters: species or system Oryctolagus cuniculus, Intestine, Microsome
# Rattus norvegicus = test: Hypocholesterolemic activity in cholestrol fed Sprague-Dawley rat assessed as decrease in total cholesterol at 0.05%, po administered for 1 week; assay type: functional; parameters: scale not given: the % may be the effect or the level left; details: time 1 weeks
# MDA-MB-231 [9] = test: Antitumor activity against human MDA-MB-231 cells xenografted in nude mouse assessed as reduction in tumor volume at 90 mg/kg, ip administered for 15 days (reference value: 550 +/- 98.6 mm3); assay type: functional; details: time 15 day
# [10] = target: T1, Delta-type opioid receptor (Mus musculus, UniProt P32300); test: Inhibition of [3H]-Deltorphin 2 binding to mouse delta opioid receptor expressed in HEK293 cell membranes incubated for 60 mins by Cheng-Prusoff analysis; parameters: species or system Cell membrane
# T1 sequence (P32300 whole entry): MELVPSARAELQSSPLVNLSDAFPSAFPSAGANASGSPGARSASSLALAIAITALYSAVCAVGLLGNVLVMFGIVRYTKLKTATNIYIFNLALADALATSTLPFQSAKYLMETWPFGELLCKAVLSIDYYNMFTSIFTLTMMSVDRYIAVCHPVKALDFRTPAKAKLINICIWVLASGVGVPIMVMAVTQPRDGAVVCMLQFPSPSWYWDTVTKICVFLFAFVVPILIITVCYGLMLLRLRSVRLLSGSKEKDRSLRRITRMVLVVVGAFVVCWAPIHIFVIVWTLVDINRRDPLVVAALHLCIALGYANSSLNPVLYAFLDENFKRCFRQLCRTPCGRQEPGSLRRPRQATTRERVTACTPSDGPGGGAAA
# Integrin alpha-4/beta-1 = Integrin alpha-4/beta-1 (Homo sapiens, UniProt P05556+P13612); test: Displacement of 125I-VCAM-Ig from VLA4 in human Jurkat cells incubated for 30 mins by scintillation counting method; assay type: cell-based
# [11] = Plasma clearance in rat; assay type: ADME
# [12] = Oral bioavailability in Sprague-Dawley rat at 2 mg/kg; assay type: ADME, organism-based; details: in vivo
# [13] = target: Delta-type opioid receptor (Homo sapiens, UniProt P41143)
# Delta-type opioid receptor (Homo sapiens, UniProt P41143), sequence (P41143 whole entry): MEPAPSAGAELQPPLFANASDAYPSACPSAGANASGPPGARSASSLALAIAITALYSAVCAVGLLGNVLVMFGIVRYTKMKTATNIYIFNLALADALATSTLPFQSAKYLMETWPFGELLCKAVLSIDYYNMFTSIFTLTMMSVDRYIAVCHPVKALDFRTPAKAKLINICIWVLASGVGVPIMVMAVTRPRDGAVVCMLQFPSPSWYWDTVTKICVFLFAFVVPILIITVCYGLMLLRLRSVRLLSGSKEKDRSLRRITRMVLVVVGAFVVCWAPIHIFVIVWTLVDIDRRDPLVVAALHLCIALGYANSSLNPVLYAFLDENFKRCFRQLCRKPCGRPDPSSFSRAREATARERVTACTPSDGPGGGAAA
# Mu-type opioid receptor = Mu-type opioid receptor (Homo sapiens, UniProt P35372)
# Mu-type opioid receptor, sequence (P35372 whole entry): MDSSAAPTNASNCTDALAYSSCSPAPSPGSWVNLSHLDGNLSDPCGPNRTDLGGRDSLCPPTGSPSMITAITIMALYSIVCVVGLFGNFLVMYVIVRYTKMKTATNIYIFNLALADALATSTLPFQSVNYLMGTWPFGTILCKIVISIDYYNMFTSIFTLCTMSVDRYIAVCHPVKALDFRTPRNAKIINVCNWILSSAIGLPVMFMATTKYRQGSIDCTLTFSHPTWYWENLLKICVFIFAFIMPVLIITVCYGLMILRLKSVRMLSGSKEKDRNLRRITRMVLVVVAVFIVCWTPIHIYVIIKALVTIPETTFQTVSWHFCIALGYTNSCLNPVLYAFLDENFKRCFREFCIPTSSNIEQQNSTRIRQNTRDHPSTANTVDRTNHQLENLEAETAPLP
# [14] = target: Kappa-type opioid receptor (Homo sapiens, UniProt P41145)
# Kappa-type opioid receptor, sequence (P41145 whole entry): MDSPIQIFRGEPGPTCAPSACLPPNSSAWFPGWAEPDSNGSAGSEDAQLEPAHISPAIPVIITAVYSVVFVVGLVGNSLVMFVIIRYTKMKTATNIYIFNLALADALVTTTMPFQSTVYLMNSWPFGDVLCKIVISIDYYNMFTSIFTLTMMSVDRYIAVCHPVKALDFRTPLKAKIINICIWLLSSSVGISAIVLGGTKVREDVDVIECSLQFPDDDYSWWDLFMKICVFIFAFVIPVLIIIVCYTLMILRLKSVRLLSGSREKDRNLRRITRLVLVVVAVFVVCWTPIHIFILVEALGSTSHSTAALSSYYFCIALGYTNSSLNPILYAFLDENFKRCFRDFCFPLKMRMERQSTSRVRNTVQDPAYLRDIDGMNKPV
# Interstitial collagenase = Interstitial collagenase (Homo sapiens, UniProt P03956); test: Inhibition of PMA-induced human skin fibroblast derived MMP1 by fluorometric assay; assay type: tissue-based
# Interstitial collagenase, sequence (P03956 whole entry): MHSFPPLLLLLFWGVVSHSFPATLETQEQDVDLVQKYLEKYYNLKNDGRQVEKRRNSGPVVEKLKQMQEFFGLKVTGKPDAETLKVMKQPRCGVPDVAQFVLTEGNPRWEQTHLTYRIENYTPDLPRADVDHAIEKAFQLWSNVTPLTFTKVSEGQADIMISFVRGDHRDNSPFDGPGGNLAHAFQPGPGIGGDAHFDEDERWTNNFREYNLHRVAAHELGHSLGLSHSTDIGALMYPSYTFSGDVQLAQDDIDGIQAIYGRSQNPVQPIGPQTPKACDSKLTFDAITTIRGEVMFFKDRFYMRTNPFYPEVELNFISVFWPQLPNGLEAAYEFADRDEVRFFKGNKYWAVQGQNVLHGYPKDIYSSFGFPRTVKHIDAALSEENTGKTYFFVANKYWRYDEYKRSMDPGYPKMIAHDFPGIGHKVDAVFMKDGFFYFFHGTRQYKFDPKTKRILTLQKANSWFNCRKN
# [15] = target: 72 kDa type IV collagenase (Homo sapiens, UniProt P08253); test: Inhibition of TNF-induced MMP2 isolated from human HT-1080 cell medium by fluorometric assay; assay type: tissue-based
# Stromelysin-1 = Stromelysin-1 (Homo sapiens, UniProt P08254); test: Inhibition of human MMP3 by fluorometric assay
# Stromelysin-1, sequence (P08254 whole entry): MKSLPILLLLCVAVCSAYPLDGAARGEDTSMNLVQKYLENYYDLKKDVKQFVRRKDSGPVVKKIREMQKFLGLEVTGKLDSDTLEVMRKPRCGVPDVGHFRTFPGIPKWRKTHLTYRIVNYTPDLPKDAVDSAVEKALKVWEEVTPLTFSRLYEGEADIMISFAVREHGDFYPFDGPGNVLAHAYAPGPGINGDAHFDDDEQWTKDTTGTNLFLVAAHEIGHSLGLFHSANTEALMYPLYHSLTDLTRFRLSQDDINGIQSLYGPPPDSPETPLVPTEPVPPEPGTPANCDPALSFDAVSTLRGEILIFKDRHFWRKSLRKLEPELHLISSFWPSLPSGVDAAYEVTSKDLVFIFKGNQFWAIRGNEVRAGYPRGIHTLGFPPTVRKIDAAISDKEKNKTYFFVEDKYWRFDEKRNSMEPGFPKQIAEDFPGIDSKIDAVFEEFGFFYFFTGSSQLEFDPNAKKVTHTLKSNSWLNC
# Matrilysin = Matrilysin (Homo sapiens, UniProt P09237); test: Inhibition of human MMP7 by fluorometric assay
# Matrilysin, sequence (P09237 whole entry): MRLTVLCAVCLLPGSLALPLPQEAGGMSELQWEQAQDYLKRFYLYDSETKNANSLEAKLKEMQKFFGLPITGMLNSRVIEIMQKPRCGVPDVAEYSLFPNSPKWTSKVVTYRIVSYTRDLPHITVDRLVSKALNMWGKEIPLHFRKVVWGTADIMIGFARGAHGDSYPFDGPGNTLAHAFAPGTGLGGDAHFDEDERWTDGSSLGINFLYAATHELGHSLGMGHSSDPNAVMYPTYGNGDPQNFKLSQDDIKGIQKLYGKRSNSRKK
# [16] = Half life in rat at 30 mg/kg, po; assay type: ADME, organism-based; details: in vivo
# [17] = Oral bioavailability in rat at 30 mg/kg; assay type: ADME, organism-based; details: in vivo
# clinical = details: human
# [18] = target: T1, Delta-type opioid receptor; test: Inhibition of [3H]-Deltorphin 2 binding to mouse delta opioid receptor expressed in rat GH3 cell membranes by Cheng-Prusoff analysis; parameters: species or system Cell membrane
# [19] = target: T1, Delta-type opioid receptor; test: Agonist activity at delta opioid receptor in mouse vas deferens assessed as inhibition of electric-field induced measured after 5 mins; assay type: tissue-based
# [20] = Half life in Sprague-Dawley rat plasma measured after 60 mins by HPLC method; assay type: ADME, cell-free
# [21] = Antagonist activity at bombesin receptor in Sprague-Dawley rat pancreatic acini assessed as inhibition of bombesin-induced amylase release incubated for 30 mins; assay type: tissue-based, Pancreas
# Human betaherpesvirus 5 = test: Antiviral activity against HCMV infected in human Hs68 cells by plaque reduction assay; assay type: functional, cell-based; details: Human betaherpesvirus 5, Hs68
# Cannabinoid receptor 1 = Cannabinoid receptor 1 (Homo sapiens, UniProt P21554); test: Displacement of [3H]-CP55940 from human recombinant cannabinoid CB1 receptor expressed in HEK cells by Cheng-Prusoff analysis; assay type: cell-based
# Cannabinoid receptor 1, sequence (P21554 whole entry): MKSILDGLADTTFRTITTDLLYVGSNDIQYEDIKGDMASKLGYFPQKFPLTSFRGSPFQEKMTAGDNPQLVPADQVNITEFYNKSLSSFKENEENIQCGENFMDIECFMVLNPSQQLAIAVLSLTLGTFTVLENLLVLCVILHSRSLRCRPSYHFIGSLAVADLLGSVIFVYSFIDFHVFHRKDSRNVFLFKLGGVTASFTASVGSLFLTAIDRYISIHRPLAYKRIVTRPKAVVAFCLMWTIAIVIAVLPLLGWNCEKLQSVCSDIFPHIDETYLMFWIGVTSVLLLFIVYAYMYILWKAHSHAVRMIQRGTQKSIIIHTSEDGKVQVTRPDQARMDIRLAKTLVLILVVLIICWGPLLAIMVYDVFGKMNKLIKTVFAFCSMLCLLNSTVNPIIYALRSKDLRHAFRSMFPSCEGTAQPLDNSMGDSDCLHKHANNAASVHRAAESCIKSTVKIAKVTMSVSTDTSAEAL
# [22] = target: T2, Transient receptor potential cation channel subfamily V member 1 (Homo sapiens, UniProt Q8NER1); test: Antagonist activity at human recombinant TRPV1 expressed in HEK293 cells assessed as effect on intracellular calcium level by FLOU-4 dye based fluorescence spectrometry; assay type: cell-based
# T2 sequence (Q8NER1 whole entry): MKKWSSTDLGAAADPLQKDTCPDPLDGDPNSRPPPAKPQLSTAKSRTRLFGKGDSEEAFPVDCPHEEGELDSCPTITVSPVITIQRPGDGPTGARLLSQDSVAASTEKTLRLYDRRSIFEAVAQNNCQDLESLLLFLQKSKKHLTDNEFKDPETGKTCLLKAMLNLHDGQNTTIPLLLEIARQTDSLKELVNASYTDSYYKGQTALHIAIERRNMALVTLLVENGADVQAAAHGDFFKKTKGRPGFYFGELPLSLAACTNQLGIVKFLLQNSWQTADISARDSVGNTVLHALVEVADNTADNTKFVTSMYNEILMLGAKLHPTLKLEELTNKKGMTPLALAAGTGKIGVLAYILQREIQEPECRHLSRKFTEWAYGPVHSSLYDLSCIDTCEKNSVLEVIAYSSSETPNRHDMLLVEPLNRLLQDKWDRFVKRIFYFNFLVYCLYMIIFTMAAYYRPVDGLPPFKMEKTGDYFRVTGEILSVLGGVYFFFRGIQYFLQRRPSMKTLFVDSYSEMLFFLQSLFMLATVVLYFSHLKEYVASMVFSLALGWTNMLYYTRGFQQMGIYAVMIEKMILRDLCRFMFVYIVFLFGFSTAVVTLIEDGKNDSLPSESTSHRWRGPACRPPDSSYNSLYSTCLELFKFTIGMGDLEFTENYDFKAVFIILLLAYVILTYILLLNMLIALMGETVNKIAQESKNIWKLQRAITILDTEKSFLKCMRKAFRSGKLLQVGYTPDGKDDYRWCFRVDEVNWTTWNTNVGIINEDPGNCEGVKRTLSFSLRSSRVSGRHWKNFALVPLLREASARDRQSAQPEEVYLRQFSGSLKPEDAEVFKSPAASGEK
# [23] = target: T2, Transient receptor potential cation channel subfamily V member 1
# [24] = target: Cholecystokinin receptor type A (Cavia porcellus, UniProt Q63931); test: Inhibition of [125]BH-CCK8 binding to guinea pig pancreas CCKAR by radioligand binding assay; assay type: tissue-based
# [25] = target: Gastrin/cholecystokinin type B receptor (Homo sapiens, UniProt P32239); test: Agonist activity at CCKBR in human NCI-H345 cells assessed as calcium release; assay type: functional, cell-based
# Gastrin/cholecystokinin type B receptor, sequence (P32239 whole entry): as the sequence (P32239 whole entry) above
smiles,measurement,setting,value
CC(C)C[C@H](NC(=O)[C@H](Cc1ccccc1)NC(=O)CNC(=O)C/C=C(\F)[C@@H](N)Cc1ccc(O)cc1)C(=O)O,half-life at 50 µM,[1],4 h
same,half-life at 50 µM,[2],4 h
CC(C)=CCC/C(C)=C/CC/C(C)=C/CSC[C@H](NC(=O)c1ccccc1Oc1ccccc1)C(=O)O,IC50,[3],4300 nM
CSCC[C@H](NC(=O)[C@H](Cc1c[nH]c2ccccc12)NC(=O)OC(C)(C)C)C(=O)N[C@@H](CC(=O)O)C(=O)N[C@@H](Cc1ccccc1)C(N)=O,IC50,[4],25 nM
same,Emax,[5],99%
CCCCS(=O)(=O)NCc1ccc2c(c1)OCO2,Activity,MDA-MB-231 [6],133.4 mm3
same,IC50,MCF-10A,198000 nM
same,IC50,MDA-MB-231 [7],87000 nM
CCCCCCCCCCCCCCCCC(=O)Nc1c(C)cccc1C,IC50,[8],43 nM
same,Activity,Rattus norvegicus,38%
COc1cc(CNC(=O)CCCC/C=C/C(C)C)ccc1O [CAPSAICIN],Activity,MDA-MB-231 [9],281.3 mm3
same,IC50,MDA-MB-231 [7],120000 nM
CC(C)C[C@H](NC(=O)[C@@H](/C=C(\F)CNC(=O)CNC(=O)[C@@H](N)Cc1ccc(O)cc1)Cc1ccccc1)C(=O)O,Ki,[10],43 nM
CC[C@@]1(C(=O)N[C@@H](Cc2ccc(-c3c(OC)cccc3OC)cc2)C(=O)O)CCN1S(=O)(=O)c1ccccc1,IC50,Integrin alpha-4/beta-1,0.07 nM
same,clearance,[11],110 mL/min/kg
same,bioavailability,[12],< 10%
CC(C)C[C@H](NC(=O)[C@H](Cc1ccccc1)NC(=O)CNC(=O)CN[C@H]([C@@H](N)Cc1ccc(O)cc1)C(F)(F)F)C(=O)O,EC50,[13],> 10000 nM
same,EC50,Mu-type opioid receptor,> 10000 nM
same,EC50,[14],> 10000 nM
C=CC[C@H](C(=O)NO)[C@@H](CC(C)C)C(=O)N[C@@H](Cc1ccc2c(c1)CCC2)C(=O)NC,IC50,Interstitial collagenase,2.2 nM
same,IC50,[15],1.8 nM
same,IC50,Stromelysin-1,12 nM
same,IC50,Matrilysin,11 nM
same,half-life,[16],0.35 h
same,bioavailability,[17],0%
Cc1nnc2n1-c1ccc(Cl)cc1C(c1ccccc1)=NC2 [ALPRAZOLAM],half-life,clinical,6.3 h
CC(C)C[C@H](NC(=O)[C@H](Cc1ccccc1)NC(=O)CNC(=O)CN[C@@H]([C@@H](N)Cc1ccc(O)cc1)C(F)(F)F)C(=O)O,EC50,[13],> 10000 nM
same,EC50,Mu-type opioid receptor,> 10000 nM
same,EC50,[14],> 10000 nM
CCCCCCCCCCCCCCCCCNC(=O)Nc1c(C)cccc1C,IC50,[8],160 nM
same,Activity,Rattus norvegicus,55%
CC(C)C[C@@H](C(=O)O)N(C)C(=O)[C@H](Cc1ccccc1)NC(=O)CNC(=O)CNC(=O)[C@@H](N)Cc1ccc(O)cc1,Ki,[18],12.6 nM
same,EC50,[19],35 nM
same,half-life,[20],0.178 h
CC(C)C[C@H](N)/C=C/NC(=O)[C@H](CC(C)C)NC(=O)[C@H](Cc1cnc[nH]1)NC(=O)CNC(=O)[C@@H](NC(=O)[C@H](C)NC(=O)[C@H](Cc1c[nH]c2ccccc12)NC(=O)[C@H](CCC(N)=O)NC(=O)[C@H](N)Cc1ccccc1)C(C)C,IC50,[21],6.7 nM
CC(C)Oc1ccccc1CNC(=O)Nc1ccc2cnccc2n1,IC50,Human betaherpesvirus 5,0.03 µg/mL
CCCCCCCc1cn(Cc2cc(OC)c(O)cc2I)nn1,Ki,Cannabinoid receptor 1,440 nM
same,Ki,[22],0.69 nM
same,EC50,[23],> 10000 nM
CC(C)C[C@H](NC(=O)OC(C)(C)C)C(=O)NCC(=O)N[C@@H](Cc1c[nH]c2ccccc12)C(=O)N[C@@H](CC(C)C)C(=O)N[C@@H](CC(=O)O)C(=O)N[C@@H](Cc1ccccc1)C(N)=O (Boc-LGWLDF-NH2),IC50,[4],54 nM
same,IC50,[24],1600 nM
same,EC50,[25],40 nM
same,Emax,[5],99%
CC(C)C[C@H](N)CNC(=O)[C@H](CC(C)C)NC(=O)[C@H](Cc1cnc[nH]1)NC(=O)CNC(=O)[C@@H](NC(=O)[C@H](C)NC(=O)[C@H](Cc1c[nH]c2ccccc12)NC(=O)[C@H](CCC(N)=O)NC(=O)[C@H](N)Cc1ccccc1)C(C)C,IC50,[21],68.7 nM
CC(C)C[C@H](OC(=O)[C@H](Cc1ccccc1)NC(=O)CNC(=O)CNC(=O)[C@@H](N)Cc1ccc(O)cc1)C(=O)O (H-YGGF-{Hica(2S)}),Ki,[18],11.9 nM
same,EC50,[19],140 nM
same,half-life,[20],0.055 h
